Reference: patent US8614206B2 (Genentech, Inc., priority 2011, dated 2013)

Molecular target: PIM1 (Homo sapiens (Human), UniProt P11309)
Assay: Pim kinase inhibition, PIM1 LC3K (Example 901)
Type: biochemical
Text: Determination of the Pim kinase activity of a Formula I compound is possible by a number of direct and indirect detection methods.

Chain of PIM1 (P11309 whole entry): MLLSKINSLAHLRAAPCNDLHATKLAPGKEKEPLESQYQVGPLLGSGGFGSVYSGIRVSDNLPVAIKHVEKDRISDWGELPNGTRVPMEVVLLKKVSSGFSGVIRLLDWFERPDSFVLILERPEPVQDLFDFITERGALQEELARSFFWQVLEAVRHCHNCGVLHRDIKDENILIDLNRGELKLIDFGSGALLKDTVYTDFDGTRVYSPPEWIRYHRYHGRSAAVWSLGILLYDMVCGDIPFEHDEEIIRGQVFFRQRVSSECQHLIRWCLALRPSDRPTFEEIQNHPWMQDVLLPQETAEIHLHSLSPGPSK

Ki | Structure (SMILES)
0.188 nM | Cn1ncc(NC(=O)c2nc(-c3ccccc3F)sc2N)c1N1CCNCC2(CCO2)C1 (racemic) [Example 477, 5-amino-2-(2-fluorophenyl)-N-[1-methyl-5-(1-oxa-6,9-diazaspiro[3.6]decan-6-yl)pyrazol-4-yl]thiazole-4-carboxamide]
0.373 nM | CCn1ncc(NC(=O)c2nc(-c3ccccc3F)sc2N)c1N1CCC(N)C(F)CC1 (single isomer, unassigned) [Example 373, 5-amino-N-[5-(4-amino-5-fluoro-azepan-1-yl)-1-ethyl-pyrazol-4-yl]-2-(2-fluorophenyl)thiazole-4-carboxamide]
0.346 nM | CCn1ncc(NC(=O)c2nc(-c3ccccc3F)sc2N)c1N1CCC(N)C(F)CC1 (single isomer, unassigned) [Example 374, 5-amino-N-[5-(4-amino-5-fluoro-azepan-1-yl)-1-ethyl-pyrazol-4-yl]-2-(2-fluorophenyl)thiazole-4-carboxamide]
0.496 nM | Cn1ncc(NC(=O)c2nc(-c3ccccc3F)sc2N)c1N1CCNC[C@]2(CCO2)C1 (single isomer, unassigned) [Example 481]
0.268 nM | Cn1ncc(NC(=O)c2nc(-c3c(F)cccc3F)sc2N)c1N1CCC(N)C2(CCO2)CC1 (single isomer, unassigned) [Example 497, 5-amino-N-[5-(5-amino-1-oxa-8-azaspiro[3.6]decan-8-yl)-1-methyl-pyrazol-4-yl]-2-(2,6-difluorophenyl)thiazole-4-carboxamide]
0.038 nM | Cn1ncc(NC(=O)c2nc(-c3c(F)cccc3F)sc2N)c1N1CCC(N)C2(CCO2)CC1 (single isomer, unassigned) [Example 498, 5-amino-N-[5-(5-amino-1-oxa-8-azaspiro[3.6]decan-8-yl)-1-methyl-pyrazol-4-yl]-2-(2,6-difluorophenyl)thiazole-4-carboxamide]
0.025 nM | Cn1ncc(NC(=O)c2nc(-c3c(F)cccc3F)sc2N)c1N1CCC(N)C2(CCO2)CC1 (single isomer, unassigned) [Example 501, 5-amino-N-[5-(5-amino-1-oxa-8-azaspiro[3.6]decan-8-yl)-1-methyl-pyrazol-4-yl]-2-(2,6-difluorophenyl)thiazole-4-carboxamide]
0.019 nM | Cc1ccc(F)c(-c2nc(C(=O)Nc3cnn(C)c3N3CCNCC(F)(F)C3)c(N)s2)c1 [Example 105, 5-Amino-N-(5-(6,6-difluoro-1,4-diazepan-1-yl)-1-methyl-1H-pyrazol-4-yl)-2-(2-fluoro-5-methylphenyl)thiazole-4-carboxamide]
0.03 nM | Cn1ncc(NC(=O)c2nc(-c3ccccc3F)ccc2N)c1N1CC[C@@H](N)CC(F)(F)C1 [Example 250, (R)-3-amino-N-(5-(5-amino-3,3-difluoroazepan-1-yl)-1-methyl-1H-pyrazol-4-yl)-6-(2-fluorophenyl)picolinamide]
0.009 nM | Cn1ncc(NC(=O)c2nc(-c3c(F)cccc3F)sc2N)c1N1CCC(N)CC(C)(F)C1 (centres unmarked) [Example 256, 5-Amino-2-(2,6-difluoro-phenyl)-thiazole-4-carboxylic acid [5-(5-amino-3-fluoro-3-methyl-azepan-1-yl)-1-methyl-1H-pyrazol-4-yl]-amide]

The remaining lines, values behind:

Structure (SMILES) | Ki
Cn1ncc(NC(=O)c2nc(-c3ccccc3F)ccc2N)c1N1CCC(N)CC(F)(F)C1 (racemic) [Example 292, 3-amino-N-(5-(5-amino-3,3-difluoroazepan-1-yl)-1-methyl-1H-pyrazol-4-yl)-6-(2-fluorophenyl)picolinamide] | 0.021 nM
Cn1ncc(NC(=O)c2nc(-c3ccccc3F)cnc2N)c1N1CCC(N)CC(F)(F)C1 (racemic) [Example 293, 3-amino-N-(5-(5-amino-3,3-difluoroazepan-1-yl)-1-methyl-1H-pyrazol-4-yl)-6-(2-fluorophenyl)pyrazine-2-carboxamide] | 0.023 nM
Cn1ncc(NC(=O)c2nc(-c3ccccc3F)cnc2N)c1N1CCC(N)C(F)CC1 (single isomer, unassigned) [Example 243, 3-amino-N-(5-(4-amino-5-fluoroazepan-1-yl)-1-methyl-1H-pyrazol-4-yl)-6-(2-fluorophenyl)pyrazine-2-carboxamide] | 0.123 nM
Cn1ncc(NC(=O)c2nc(-c3ccccc3F)cnc2N)c1N1CCC(N)C(F)CC1 (single isomer, unassigned) [Example 244, 3-amino-N-(5-(4-amino-5-fluoroazepan-1-yl)-1-methyl-1H-pyrazol-4-yl)-6-(2-fluorophenyl)pyrazine-2-carboxamide] | 0.141 nM
Cn1ncc(NC(=O)c2nc(-c3ccccc3F)ccc2N)c1N1CCC(N)C(F)CC1 (single isomer, unassigned) [Example 245, 3-amino-N-(5-(4-amino-5-fluoroazepan-1-yl)-1-methyl-1H-pyrazol-4-yl)-6-(2-fluorophenyl)picolinamide] | 0.173 nM
Cn1ncc(NC(=O)c2nc(-c3ccccc3F)ccc2N)c1N1CCC(N)C(F)CC1 (single isomer, unassigned) [Example 246, 3-amino-N-(5-(4-amino-5-fluoroazepan-1-yl)-1-methyl-1H-pyrazol-4-yl)-6-(2-fluorophenyl)picolinamide] | 0.149 nM
Cn1ncc(NC(=O)c2nc(-c3ccccc3F)cnc2N)c1N1CC[C@@H](N)CC(F)(F)C1 (single isomer, unassigned) [Example 248] | 0.007 nM
Nc1sc(-c2c(F)cccc2F)nc1C(=O)Nc1cnn(CC(F)F)c1N1CC[C@H](N)CC(F)(F)C1 (single isomer, unassigned) [Example 280] | 0.01 nM
Nc1sc(-c2c(F)cccc2F)nc1C(=O)Nc1cnn(C2CC2)c1N1CCC(N)C(F)CC1 (single isomer, unassigned) [Example 332, 5-amino-N-[5-(4-amino-5-fluoro-azepan-1-yl)-1-cyclopropyl-pyrazol-4-yl]-2-(2,6-difluorophenyl)thiazole-4-carboxamide] | 0.148 nM
CCn1ncc(NC(=O)c2nc(-c3c(F)cccc3F)sc2N)c1N1CCC(N)C(F)CC1 (single isomer, unassigned) [Example 369, 5-amino-N-[5-(4-amino-5-fluoro-azepan-1-yl)-1-ethyl-pyrazol-4-yl]-2-(2,6-difluorophenyl)thiazole-4-carboxamide] | 0.178 nM
CCn1ncc(NC(=O)c2nc(-c3c(F)cccc3F)sc2N)c1N1CCC(N)C(OC)CC1 (single isomer, unassigned) [Example 389, 5-amino-N-[5-(4-amino-5-methoxy-azepan-1-yl)-1-ethyl-pyrazol-4-yl]-2-(2,6-difluorophenyl)thiazole-4-carboxamide] | 0.624 nM
COC1CCN(c2c(NC(=O)c3nc(-c4c(F)cccc4F)sc3N)cnn2C2CC2)CCC1N (single isomer, unassigned) [Example 401, 5-amino-N-[5-(4-amino-5-methoxy-azepan-1-yl)-1-cyclopropyl-pyrazol-4-yl]-2-(2,6-difluorophenyl)thiazole-4-carboxamide] | 0.059 nM
COC1CCN(c2c(NC(=O)c3nc(-c4c(F)cccc4F)sc3N)cnn2C2CC2)CCC1N (single isomer, unassigned) [Example 402, 5-amino-N-[5-(4-amino-5-methoxy-azepan-1-yl)-1-cyclopropyl-pyrazol-4-yl]-2-(2,6-difluorophenyl)thiazole-4-carboxamide] | 0.126 nM
COC1CCN(c2c(NC(=O)c3nc(-c4c(F)cccc4F)sc3N)cnn2C2CC2)CCC1N (single isomer, unassigned) [Example 403, 5-amino-N-[5-(4-amino-5-methoxy-azepan-1-yl)-1-cyclopropyl-pyrazol-4-yl]-2-(2,6-difluorophenyl)thiazole-4-carboxamide] | 0.21 nM
COC1CCN(c2c(NC(=O)c3nc(-c4c(F)cccc4F)sc3N)cnn2C2CC2)CCC1N (single isomer, unassigned) [Example 404, 5-amino-N-[5-(4-amino-5-methoxy-azepan-1-yl)-1-cyclopropyl-pyrazol-4-yl]-2-(2,6-difluorophenyl)thiazole-4-carboxamide] | 0.036 nM
Cn1ncc(NC(=O)c2nc(-c3ccccc3F)ccc2N)c1N1CC[C@H](N)CC(F)(F)C1 (stereo in doubt) [Example 249, 3-amino-N-(5-(5-amino-3,3-difluoroazepan-1-yl)-1-methyl-1H-pyrazol-4-yl)-6-(2-fluorophenyl)picolinamide] | 0.02 nM
Nc1sc(-c2c(F)cccc2F)nc1C(=O)Nc1cnn(CC(F)F)c1N1CCCC[C@@H](N)C1 [Example 104, (R)-5-amino-N-(5-(3-aminoazepan-1-yl)-1-(2,2-difluoroethyl)-1H-pyrazol-4-yl)-2-(2,6-difluorophenyl)thiazole-4-carboxamide] | 0.091 nM
Nc1sc(-c2c(F)cccc2F)nc1C(=O)Nc1cnn(CC(F)F)c1N1CCCC(O)CC1 (centres unmarked) [Example 110, 5-Amino-N-(1-(2,2-difluoroethyl)-5-(4-hydroxyazepan-1-yl)-1H-pyrazol-4-yl)-2-(2,6-difluorophenyl)thiazole-4-carboxamide] | 0.166 nM
Cc1ccc(F)c(-c2nc(C(=O)Nc3cnn(CC(F)F)c3N3CCCC(O)CC3)c(N)s2)c1 (centres unmarked) [Example 111, 5-Amino-N-(1-(2,2-difluoroethyl)-5-(4-hydroxyazepan-1-yl)-1H-pyrazol-4-yl)-2-(2-fluoro-5-methylphenyl)thiazole-4-carboxamide] | 0.079 nM
Nc1sc(-c2cc(F)ccc2F)nc1C(=O)Nc1cnn(CC(F)F)c1N1CCCC(O)CC1 (centres unmarked) [Example 118, 5-Amino-N-(1-(2,2-difluoroethyl)-5-(4-hydroxyazepan-1-yl)-1H-pyrazol-4-yl)-2-(2,5-difluorophenyl)thiazole-4-carboxamide] | 0.292 nM
Cn1ncc(NC(=O)c2nc(-c3ccccc3F)cnc2N)c1N1CC[C@H](N)CC(F)(F)C1 [Example 247, (S)-3-amino-N-(5-(5-amino-3,3-difluoroazepan-1-yl)-1-methyl-1H-pyrazol-4-yl)-6-(2-fluorophenyl)pyrazine-2-carboxamide] | 0.01 nM
Nc1sc(-c2c(F)cccc2F)nc1C(=O)Nc1cnn(CC2COC2)c1N1CCNCC1 [Example 251, 5-Amino-2-(2,6-difluoro-phenyl)-thiazole-4-carboxylic acid (1-oxetan-3-ylmethyl-5-piperazin-1-yl-1H-pyrazol-4-yl)-amide] | > 667 nM
